SMILES strings stand for the structures.

Among the data in ChEMBL document CHEMBL5223123, “Synthesis and pharmacological characterization of multiply substituted 2H-chromene derivatives as P2Y6 receptor antagonists” (Bioorg Med Chem Lett, 2022) are IC50, Activity and Ki values, retold here.

Data set [1] deals with T1, P2Y purinoceptor 6 (Homo sapiens, UniProt Q15077). As to the kind of experiment: Antagonist activity at human P2Y6R expressed in human 1321N1 cells assessed as inhibition of […] calcium mobilization by FLIPR assay. The format is cell-based.
T1 sequence (Q15077 whole entry): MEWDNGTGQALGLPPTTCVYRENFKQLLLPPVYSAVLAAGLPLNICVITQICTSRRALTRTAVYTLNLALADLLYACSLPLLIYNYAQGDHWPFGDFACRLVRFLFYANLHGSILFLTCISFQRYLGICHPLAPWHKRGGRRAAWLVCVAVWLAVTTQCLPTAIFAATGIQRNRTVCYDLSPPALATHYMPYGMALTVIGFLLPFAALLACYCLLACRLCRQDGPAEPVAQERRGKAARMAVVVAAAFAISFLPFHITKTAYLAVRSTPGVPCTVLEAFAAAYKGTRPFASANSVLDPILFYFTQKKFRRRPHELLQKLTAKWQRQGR
In data set [2] the target is T1, P2Y purinoceptor 6. The data set is described as follows: Antagonist activity at human P2Y6R expressed in human 1321N1 cells assessed as inhibition of […] calcium mobilization at 100 uM by FLIPR assay relative to control. The class given is cell-based. Details: scale not given: the % may be the effect or the level left. Background: A change in cytosolic calcium serves as a functional read-out for many receptors and channels.

Data set [3] concerns the target P2Y purinoceptor 6 (Mus musculus, UniProt Q9ERK9). As to the kind of experiment: Antagonist activity at mouse P2Y6R expressed in human 1321N1 cells assessed as inhibition of […] calcium mobilization by FLIPR assay. The format is cell-based.
Data set [4] has as its target P2Y purinoceptor 6 (Mus musculus) (UniProt Q9ERK9). As to the kind of experiment: Antagonist activity at mouse P2Y6R expressed in human 1321N1 cells assessed as inhibition of […] calcium mobilization at 20 uM by FLIPR assay relative to control. The class given is cell-based. Details: scale not given: the % may be the effect or the level left.
Data set [5] has as its target P2Y purinoceptor 4 (Homo sapiens) (UniProt P51582). As to the kind of experiment: Antagonist activity at human P2Y4R expressed in human 1321N1 cells assessed as inhibition of […] calcium mobilization at 100 uM by FLIPR assay relative to control. The class given is cell-based. Details: scale not given: the % may be the effect or the level left.
In data set [6] the test system is HEK293. As to the kind of experiment: Cytotoxicity against HEK293 cells assessed as reduction in cell viability at 100 uM measured after 24 hrs by MTT assay relative to control. The class given is toxicity, cell-based. The note with it: human, hek293, 24 h.
In data set [7] the target is P2Y purinoceptor 2 (Homo sapiens) (UniProt P41231). As to the kind of experiment: Antagonist activity at human P2Y2R expressed in human 1321N1 cells assessed as inhibition of […] calcium mobilization at 100 uM by FLIPR assay relative to control. Details: scale not given: the % may be the effect or the level left. The format is cell-based.
P2Y purinoceptor 2 (Homo sapiens), sequence (P41231 whole entry): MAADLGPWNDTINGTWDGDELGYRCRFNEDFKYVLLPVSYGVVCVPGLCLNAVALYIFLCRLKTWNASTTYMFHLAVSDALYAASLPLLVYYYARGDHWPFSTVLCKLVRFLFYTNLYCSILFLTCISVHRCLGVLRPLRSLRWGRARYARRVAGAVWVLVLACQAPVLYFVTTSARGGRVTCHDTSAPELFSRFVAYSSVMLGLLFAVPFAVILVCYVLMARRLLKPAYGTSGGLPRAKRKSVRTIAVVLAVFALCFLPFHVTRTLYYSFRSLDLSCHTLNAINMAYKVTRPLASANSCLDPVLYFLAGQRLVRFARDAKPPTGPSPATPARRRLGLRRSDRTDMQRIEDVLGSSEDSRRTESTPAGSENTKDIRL
Data set [8] deals with P2Y purinoceptor 1 (Meleagris gallopavo) (UniProt P49652). The data set is described as follows: Antagonist activity at Meleagris P2Y1R expressed in human 1321N1 cells assessed as inhibition of […] calcium mobilization at 100 uM by FLIPR assay relative to control. The format is cell-based. Details: scale not given: the % may be the effect or the level left.
P2Y purinoceptor 1 (Meleagris gallopavo), sequence (P49652 whole entry): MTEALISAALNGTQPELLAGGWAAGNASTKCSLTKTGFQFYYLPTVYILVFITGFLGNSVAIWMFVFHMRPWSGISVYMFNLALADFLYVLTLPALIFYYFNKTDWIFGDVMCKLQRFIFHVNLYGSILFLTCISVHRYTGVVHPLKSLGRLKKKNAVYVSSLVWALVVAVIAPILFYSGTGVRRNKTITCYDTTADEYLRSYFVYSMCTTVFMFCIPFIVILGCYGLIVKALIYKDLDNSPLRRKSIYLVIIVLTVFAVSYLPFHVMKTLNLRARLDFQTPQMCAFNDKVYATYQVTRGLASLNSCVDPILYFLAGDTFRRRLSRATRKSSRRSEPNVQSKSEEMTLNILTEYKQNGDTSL
The target of data set [9] is D(1B) dopamine receptor (Homo sapiens, UniProt P21918). As to the kind of experiment: Binding affinity to dopamine 5 receptor (unknown origin).
D(1B) dopamine receptor, sequence (P21918 whole entry): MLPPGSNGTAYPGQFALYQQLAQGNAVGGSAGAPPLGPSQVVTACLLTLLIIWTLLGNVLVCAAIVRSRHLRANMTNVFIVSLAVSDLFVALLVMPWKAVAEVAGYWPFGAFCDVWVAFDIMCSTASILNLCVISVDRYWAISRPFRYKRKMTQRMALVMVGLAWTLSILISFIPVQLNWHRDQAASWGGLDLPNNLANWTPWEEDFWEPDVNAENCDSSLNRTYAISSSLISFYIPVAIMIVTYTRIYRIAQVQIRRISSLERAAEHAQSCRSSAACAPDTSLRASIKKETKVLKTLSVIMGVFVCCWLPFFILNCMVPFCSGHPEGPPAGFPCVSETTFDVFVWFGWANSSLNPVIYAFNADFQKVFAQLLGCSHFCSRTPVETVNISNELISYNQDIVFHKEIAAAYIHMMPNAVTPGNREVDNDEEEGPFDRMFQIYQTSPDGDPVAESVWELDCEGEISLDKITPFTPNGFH
Data set [10] deals with D(3) dopamine receptor (Homo sapiens, UniProt P35462). The data set is described as follows: Binding affinity to dopamine 3 receptor (unknown origin).
D(3) dopamine receptor, sequence (P35462 whole entry): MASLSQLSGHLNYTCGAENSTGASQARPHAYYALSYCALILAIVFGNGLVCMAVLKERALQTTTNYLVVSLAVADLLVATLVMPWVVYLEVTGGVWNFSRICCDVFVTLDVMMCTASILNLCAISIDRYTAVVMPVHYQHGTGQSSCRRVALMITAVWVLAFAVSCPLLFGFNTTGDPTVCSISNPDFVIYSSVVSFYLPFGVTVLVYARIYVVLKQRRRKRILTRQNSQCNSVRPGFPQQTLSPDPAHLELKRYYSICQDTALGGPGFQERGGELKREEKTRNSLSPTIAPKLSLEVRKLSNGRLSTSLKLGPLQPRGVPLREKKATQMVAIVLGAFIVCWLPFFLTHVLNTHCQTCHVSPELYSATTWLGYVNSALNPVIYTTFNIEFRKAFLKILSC
Data set [11] addresses Sigma non-opioid intracellular receptor 1 (Homo sapiens, UniProt Q99720). The data set is described as follows: Binding affinity to sigma 1 receptor (unknown origin).
Data set [12] concerns the target 5-hydroxytryptamine receptor 2A (Homo sapiens, UniProt P28223). As to the kind of experiment: Binding affinity to 5-HT2A (unknown origin).
Data set [13] concerns the target T2, Alpha-2C adrenergic receptor (Homo sapiens, UniProt P18825).
T2 sequence (P18825 whole entry): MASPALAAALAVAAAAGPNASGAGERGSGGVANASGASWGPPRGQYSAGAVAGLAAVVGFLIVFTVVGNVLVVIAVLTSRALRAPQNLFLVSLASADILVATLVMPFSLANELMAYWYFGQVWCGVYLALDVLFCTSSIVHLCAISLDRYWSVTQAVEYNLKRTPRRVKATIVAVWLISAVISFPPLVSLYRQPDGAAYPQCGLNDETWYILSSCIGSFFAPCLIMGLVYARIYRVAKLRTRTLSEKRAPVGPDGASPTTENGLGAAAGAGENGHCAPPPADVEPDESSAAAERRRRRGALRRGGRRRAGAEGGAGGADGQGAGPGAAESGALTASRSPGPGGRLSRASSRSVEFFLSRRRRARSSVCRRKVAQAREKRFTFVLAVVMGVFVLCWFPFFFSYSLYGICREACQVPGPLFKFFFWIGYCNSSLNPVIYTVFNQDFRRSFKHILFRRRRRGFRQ
As to the kind of experiment: Binding affinity to adrenergic alpha 2c receptor (unknown origin).

The target of data set [14] is Histamine H1 receptor (Homo sapiens, UniProt P35367). As to the kind of experiment: Binding affinity to histamine H1 receptor (unknown origin).
Histamine H1 receptor, sequence (P35367 whole entry): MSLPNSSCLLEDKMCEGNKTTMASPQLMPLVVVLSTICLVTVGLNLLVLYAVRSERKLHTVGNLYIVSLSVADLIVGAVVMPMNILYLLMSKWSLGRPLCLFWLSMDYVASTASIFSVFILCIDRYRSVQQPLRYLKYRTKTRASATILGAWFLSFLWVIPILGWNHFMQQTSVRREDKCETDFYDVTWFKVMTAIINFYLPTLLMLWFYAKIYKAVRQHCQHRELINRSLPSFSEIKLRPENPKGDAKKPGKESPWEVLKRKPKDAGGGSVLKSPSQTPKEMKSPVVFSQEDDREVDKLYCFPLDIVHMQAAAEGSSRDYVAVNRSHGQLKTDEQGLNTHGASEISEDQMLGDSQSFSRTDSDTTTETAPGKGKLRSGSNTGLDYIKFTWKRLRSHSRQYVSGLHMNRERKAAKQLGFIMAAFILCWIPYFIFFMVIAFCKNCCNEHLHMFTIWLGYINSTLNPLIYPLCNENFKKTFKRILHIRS
Data set [15] concerns the target Beta-3 adrenergic receptor (Homo sapiens, UniProt P13945). As to the kind of experiment: Binding affinity to adrenergic beta 3 (unknown origin).
Data set [16] addresses Sigma intracellular receptor 2 (Homo sapiens, UniProt Q5BJF2). The data set is described as follows: Binding affinity to sigma 2 receptor (unknown origin).

P2Y purinoceptor 6 (Mus musculus, UniProt Q9ERK9), sequence (Q9ERK9 whole entry): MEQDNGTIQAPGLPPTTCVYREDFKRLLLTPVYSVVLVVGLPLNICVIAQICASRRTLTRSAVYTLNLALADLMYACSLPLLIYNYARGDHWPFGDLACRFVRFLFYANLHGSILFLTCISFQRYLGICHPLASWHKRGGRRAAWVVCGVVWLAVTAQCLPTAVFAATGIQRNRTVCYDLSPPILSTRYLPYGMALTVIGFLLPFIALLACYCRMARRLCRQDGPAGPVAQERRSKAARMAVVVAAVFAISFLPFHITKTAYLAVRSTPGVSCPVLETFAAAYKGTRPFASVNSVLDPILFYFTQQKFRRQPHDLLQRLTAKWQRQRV
P2Y purinoceptor 4 (Homo sapiens), sequence (P51582 whole entry): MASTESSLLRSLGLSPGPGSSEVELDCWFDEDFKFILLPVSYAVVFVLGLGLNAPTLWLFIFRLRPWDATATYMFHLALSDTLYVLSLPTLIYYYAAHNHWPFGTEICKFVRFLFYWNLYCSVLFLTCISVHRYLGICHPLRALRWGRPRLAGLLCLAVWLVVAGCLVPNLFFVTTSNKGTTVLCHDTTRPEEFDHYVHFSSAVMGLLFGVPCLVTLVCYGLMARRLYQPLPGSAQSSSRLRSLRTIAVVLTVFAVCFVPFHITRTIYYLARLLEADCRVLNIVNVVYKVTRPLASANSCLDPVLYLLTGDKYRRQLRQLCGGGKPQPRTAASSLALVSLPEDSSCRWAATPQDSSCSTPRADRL
Sigma non-opioid intracellular receptor 1, sequence (Q99720 whole entry): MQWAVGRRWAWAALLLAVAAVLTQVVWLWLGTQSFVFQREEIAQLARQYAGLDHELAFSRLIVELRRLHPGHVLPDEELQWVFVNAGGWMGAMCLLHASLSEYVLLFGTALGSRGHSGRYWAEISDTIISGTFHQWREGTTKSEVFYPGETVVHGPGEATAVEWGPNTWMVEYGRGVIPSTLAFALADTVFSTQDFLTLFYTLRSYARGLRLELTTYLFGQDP
5-hydroxytryptamine receptor 2A, sequence (P28223 whole entry): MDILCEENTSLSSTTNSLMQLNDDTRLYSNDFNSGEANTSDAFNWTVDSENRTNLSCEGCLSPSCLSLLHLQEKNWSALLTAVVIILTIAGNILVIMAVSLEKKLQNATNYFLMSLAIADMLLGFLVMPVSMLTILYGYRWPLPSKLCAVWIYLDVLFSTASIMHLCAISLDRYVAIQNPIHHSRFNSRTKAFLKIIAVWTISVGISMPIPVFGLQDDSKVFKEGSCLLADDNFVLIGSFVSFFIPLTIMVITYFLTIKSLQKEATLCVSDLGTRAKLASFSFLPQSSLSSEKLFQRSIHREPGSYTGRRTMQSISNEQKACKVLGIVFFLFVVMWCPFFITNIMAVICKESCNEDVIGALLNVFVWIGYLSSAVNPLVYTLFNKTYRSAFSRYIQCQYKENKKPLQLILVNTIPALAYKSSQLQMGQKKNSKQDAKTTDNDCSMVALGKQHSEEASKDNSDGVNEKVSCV
Sigma intracellular receptor 2, sequence (Q5BJF2 whole entry): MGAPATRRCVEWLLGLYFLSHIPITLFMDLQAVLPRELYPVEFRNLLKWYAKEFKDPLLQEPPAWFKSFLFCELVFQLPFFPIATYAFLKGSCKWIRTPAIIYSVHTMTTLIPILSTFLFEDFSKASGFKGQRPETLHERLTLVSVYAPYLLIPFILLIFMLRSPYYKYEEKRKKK
P2Y purinoceptor 6 (Mus musculus), sequence (Q9ERK9 whole entry): as the sequence (Q9ERK9 whole entry) above
Beta-3 adrenergic receptor, sequence (P13945 whole entry): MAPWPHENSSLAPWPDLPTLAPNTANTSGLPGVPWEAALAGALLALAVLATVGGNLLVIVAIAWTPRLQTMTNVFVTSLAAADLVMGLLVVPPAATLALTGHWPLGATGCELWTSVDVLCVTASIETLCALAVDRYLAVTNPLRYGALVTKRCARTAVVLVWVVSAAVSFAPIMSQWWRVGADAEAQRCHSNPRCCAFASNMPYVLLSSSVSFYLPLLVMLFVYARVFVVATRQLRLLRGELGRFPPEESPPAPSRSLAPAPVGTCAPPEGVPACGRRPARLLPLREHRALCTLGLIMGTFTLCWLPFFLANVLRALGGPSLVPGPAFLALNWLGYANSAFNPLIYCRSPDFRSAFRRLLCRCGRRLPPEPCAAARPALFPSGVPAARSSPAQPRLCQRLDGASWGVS

Turning to `O=[N+]([O-])C1=Cc2c(I)cccc2OC1C(F)(F)F` (racemic), the IC50 (as a rule, the midpoint of a concentration-inhibition curve) in [1] was determined as 13.1 µM.

With `O=[N+]([O-])C1=Cc2c(Cl)cccc2OC1C(F)(F)F` (racemic), the IC50 in [1] came to 15.7 µM.

Turning to `FC(F)(F)C1Oc2ccc(Cl)cc2-c2n[nH]nc21` (racemic), in data set [2] (filed as antagonist), the Activity came to 43%.

In the case of `O=[N+]([O-])C1=Cc2cc(Br)ccc2OC1C(F)(F)F` (racemic), in [3], the 50% inhibitory concentration (IC50) came to 20.2 µM.

For the compound `O=C(O)c1ccc(C#Cc2ccc3c(c2)C=C([N+](=O)[O-])C(C(F)(F)F)O3)cc1` (racemic), the Activity in data set [4] is 14%; in data set [5], under 30%; in data set [6], 95%; in data set [7], under 30%; in data set [8] it was under 30%.

In the case of `O=[N+]([O-])C1=Cc2cc(F)cc(Br)c2OC1C(F)(F)F` (racemic), the half-maximal inhibitory concentration (IC50) in data set [3] was found to be 14.5 µM.

Consider `C[Si](C)(C)C#Cc1ccc2c(c1)C=C([N+](=O)[O-])C(C(F)(F)F)O2` (racemic), for which the Activity in [5] is under 30%; in data set [6], 58%; in data set [7], under 30%; in data set [8], under 30%.

For `NC1Cc2ccccc2OC1C(F)(F)F` (racemic), in data set [2], the Activity is 0%.

As for `O=[N+]([O-])C1=Cc2cc(Cl)ccc2OC1C(F)(F)F` (racemic), the IC50 in [3] stood at 30.8 µM. For the same compound, the Ki (commonly a dissociation constant, usually derived from enzyme kinetics or from competition with a known ligand) came to 2.79 µM in [9] and 0.78 µM in data set [10].

For the compound `O=[N+]([O-])C1=Cc2cc(F)cc(F)c2OC1C(F)(F)F` (racemic), the IC50 was 17.8 µM in data set [3] and 2.99 µM in [1].

`O=[N+]([O-])C1=Cc2cccc(Cl)c2OC1C(F)(F)F` (racemic): the figures for the half-inhibitory concentration (IC50) in data set [3] and in [1] were 15.2 µM and 3.69 µM, respectively.

For `O=[N+]([O-])C1=Cc2ccccc2OC1C(F)(F)F` (racemic), the IC50 in data set [3] stood at 185 µM.

Consider `O=[N+]([O-])C1=Cc2cc(I)ccc2OC1C1CCC1` (racemic), for which the IC50 in data set [1] turned out to be 33.1 µM.

With `CC[Si](C#Cc1ccc2c(c1)C=C([N+](=O)[O-])C(C1CC1)O2)(CC)CC` (racemic), in [2] (filed as antagonist), the Activity stood at 50%.

As for `O=[N+]([O-])C1=Cc2cc(C#Cc3ccc(Cl)cc3)ccc2OC1C(F)(F)F` (racemic), the IC50 in data set [1] was found to be 5.35 µM.

In the case of `O=[N+]([O-])C1=Cc2cc(C#Cc3ccc(F)cc3)ccc2OC1C(F)(F)F` (racemic), the IC50 in data set [1] stood at 8.86 µM.

On to `CC[Si](C#Cc1cccc2c1OC(C(F)(F)F)C([N+](=O)[O-])=C2)(CC)CC` (racemic), for which the Ki came out at 6.4 µM in [11]; 4.2 µM in data set [12]; 1.1 µM in data set [13]; 3.5 µM in [14]; 7.3 µM in data set [15]. Further, the Activity in data set [5] is under 30%; in data set [6], 83%; in [7] it was under 30%; in data set [8], 39.2%. Besides, the IC50 in [3] amounted to 6.15 µM; in data set [1], 0.461 µM.

As for `CC1Oc2ccc(I)cc2C=C1[N+](=O)[O-]` (racemic), in data set [1], the IC50 stood at 36.8 µM.

In the case of `O=[N+]([O-])C1=Cc2cc(I)ccc2OC1C(F)(F)F` (racemic), in data set [3], the IC50 is 28.7 µM.

With `CC[Si](C#Cc1cccc2c1C=C([N+](=O)[O-])C(C(F)(F)F)O2)(CC)CC` (racemic), in data set [1], the IC50 was 4.77 µM.

Turning to `O=[N+]([O-])C1=Cc2cc(F)ccc2OC1C(F)(F)F` (racemic), in data set [16], the Ki was 8.6 µM.

Regarding `O=[N+]([O-])C1=Cc2cccc(I)c2OC1C(F)(F)F` (racemic), the IC50 in data set [3] came to 17.6 µM.

With `O=[N+]([O-])C1=Cc2ccc(Cl)cc2OC1C(F)(F)F` (racemic), the IC50 in data set [1] came out at 7.98 µM.

Turning to `O=[N+]([O-])C1=Cc2cc(C#Cc3ccc(CO)cc3)ccc2OC1C(F)(F)F` (racemic), the IC50 in data set [3] was 31.6 µM. The compound also had a Ki in [9] of 0.6 µM.

In the case of `CC[Si](C#Cc1ccc2c(c1)C=C([N+](=O)[O-])C(C(F)(F)F)O2)(CC)CC` (racemic), the Activity was under 30% in [5], 73% in [6], under 30% in data set [7] and under 30% in [8]. Also, the IC50 in data set [3] came to 4.94 µM.
